# Test results from US12150933B2, “IL-8 inihibitors for use in the treatment of some urological disorders” (DOMPÉ FARMACEUTICI S.P.A., priority 2015, dated 2024).
# Entries after “also recorded” stand apart in the source; their conditions may differ.
# Experiments:
# [1] = system: CYP-induced visceral pain; assay: Acute administration in CYP-induced visceral pain in rats (Von Frey mechanical threshold); format: in vivo, rat
# Experimental: Female Sprague Dawley rats (Crl:CD(SD)BR, 250-350 g) from Charles River Italy were used in these experiments. Animals were housed with free access to food and water and maintained on a forced 12 hours light-dark cycle at 22-24° C. for at least one week before the experiments were carried out. The animals were handled according to internationally accepted principles for care of laboratory animals (E.E.C. Council Directive 86/609, […]. 18, 1986). Cyclophosphamide, 75 mg/kg i.p. for 3 times, every 3rd day, was dissolved in distilled water and administered to animals by i.p. route (volume 5 mL/kg). Appropriate weight of Compd. 1 or Compd. 2 was dissolved in saline, all doses of test compounds were administered by oral gavage (volume 2 mL/kg). On the day of the experiment, each rat was placed individually in a clear plastic testing box with a grid floor and allowed to acclimatize for at least 10 min. Visceral sensitivity in response to mechanical stimuli was determined using Von Frey monofilaments (1-2-4-8-15-26-60-100 g) applied in the lower abdominal area (close to the urinary bladder) and on both hind paws plantar surface (to evaluate referred pain). Each Von Frey monofilament was applied 5 times at the level of abdomen and 3 times at the level of each paw, in an ascending order of strength at interval of 5 sec. A stimulus-induced response was considered positive when the paw was sharply withdrawn, paw licking occurred, or the animal flinched upon removal of the filament. Behavioral testing on animals was performed at 3 different times: • before CYP administration (in order to acquire basal values) • after CYP administration, before treatment with the test compound, to verify the pathology (in order to acquire pre-treatment values) • after CYP administration, after treatment (in order to acquire post-treatment values) […] The test was performed in blind. Compd. 1 and Compd. […]
# [2] = system: CYP-induced visceral pain; assay: Chronic administration in CYP-induced visceral pain in rats (Von Frey withdrawal threshold); format: in vivo, rat
# Experimental: Cyclophosphamide, 75 mg/kg i.p. for 3 times, every 3rd day, was dissolved in distilled water and administered to animals by i.p. route (volume 5 mL/kg). Appropriate weight of Compd. 1 or Compd. 2 was dissolved in saline, all doses of test compounds were administered by oral gavage (volume 2 mL/kg).
# On the day of the experiment, each rat was placed individually in a clear plastic testing box with a grid floor and allowed to acclimatize for at least 10 min. Visceral sensitivity in response to mechanical stimuli was determined using Von Frey monofilaments (1-2-4-8-15-26-60-100 g) applied in the lower abdominal area (close to the urinary bladder) and on both hind paws plantar surface (to evaluate referred pain).
# Each Von Frey monofilament was applied 5 times at the level of abdomen and 3 times at the level of each paw, in an ascending order of strength at interval of 5 sec. A stimulus-induced response was considered positive when the paw was sharply withdrawn, paw licking occurred, or the animal flinched upon removal of the filament.
# • before CYP administration (in order to acquire basal values) • after CYP administration and before treatment, to verify the pathology (in order to acquire pre-treatment values) • after chronic treatment, about 18 hours after last administration of Compd. 1 (in order to acquire post-treatment values). • after chronic treatment, 2 hours after the last administration of Compd. 1 (in order to acquire post-treatment values after chronic+acute administration)
# Compd. 1 or vehicle was administered p.o. to animals twice daily (according to the pharmacokinetic profile of the compound) for 6 days, starting from 24 hours after last treatment with CYP, when painful symptoms were well established. Nociceptive hypersensitivity was evaluated about 18 hours after the last administration of Compd. 1 (or vehicle) in order to evaluate the effect of chronic administration, or a further dosage of compound was administered and evaluation carried out 2 hours thereafter, in order to compare with acute protocol, described in Example 1.
# [3] = 7 mg/kg twice daily p.o. for 6 days, about 18 hours after last administration
structure (smiles),measurement,setting,value
"C[C@H](C(=O)O)c1ccc(Nc2nc(C(F)(F)F)cs2)cc1 [Compd. 1, (2S)-2-(4-{[4-(trifluoromethyl)-1,3-thiazol-2-yl]amino}phenyl) propanoic acid]","withdrawal thresholds, abdomen and hind paws","[1]; 1 mg/kg p.o., 2 hours after administration, versus pre-treatment",not significantly different from the pretreatment values
same,"mechanical threshold, abdomen and hind paws","[1]; 3 mg/kg p.o., 2 hours after administration, versus pre-treatment",statistical significant increase of mechanical threshold in both the areas evaluated
same,"mechanical threshold, abdomen and hind paws","[1]; 7 mg/kg p.o., 2 hours after administration, versus pre-treatment",statistical significant reduction of painful hypersensitivity in both the abdominal and plantar surface
same,"mechanical threshold, abdomen and hind paws","[1]; 10 mg/kg p.o., 2 hours after administration, versus pre-treatment",statistically significant increase in mechanical threshold in both the abdomen and paws area; also recorded: statistical significant reduction of painful hypersensitivity in both the abdominal and plantar surface
same,"mechanical threshold, abdomen and hind paws","[1]; 30 mg/kg p.o., 2 hours after administration, versus pre-treatment",statistically significant increase in mechanical threshold in both the abdomen and paws area
same,MED,"[1]; p.o., acute administration",3 mg/kg
same,painful visceral symptoms in both evaluated areas,"[2]; 7 mg/kg twice daily p.o. for 6 days plus one further dose, 2 hours following the last administration",fully abolished the painful visceral symptoms in both evaluated areas
same,nociceptive hypersensitivity in hind-paws plantar surface,[2]; [3],completely reverses the nociceptive hypersensitivity in hind-paws plantar surface
same,withdrawal thresholds in the abdomen,[2]; [3],almost complete recovery of withdrawal thresholds in the abdomen; also recorded: almost complete increase in withdrawal thresholds in the abdomen
